Reference: US20250381109A1, “KERATIN TREATMENT FORMULATIONS AND METHODS” (Olaplex, Inc., priority 2014, published 2025)

Experiments:
[1] = Hair treated with bleaching formulation applied simultaneously with active agent formulation versus bleaching formulation alone (Example 4); set-up: species or system human; conditions: 3.5 g of 12 wt % in water added to bleaching mixture, two hours
Method: (§1) (1) 0.5 ounces of powder lightener (Clairol Professional, Basic White) and 0.5 ounces of conditioning cream developer (Redken, Blonde Icing) were combined to form a bleaching mixture. 3.5 g of 2-(methacryloyloxy)ethan-1-aminium (Z)-3-carboxyacrylate (12 wt % in water) was added to the bleaching mixture and thoroughly mixed with a brush.
(§2) (2) The bleaching mixture prepared was brushed onto the swatches of hair with a brush in order to thoroughly coat the strands of hair. The mixture coated hair was wrapped in aluminum paper and allowed to stand under ambient conditions for a period of two hours.
(§3) (3) After the two hour bleaching period the swatches of hair were washed with shampoo and the hair was subsequently allowed to air dry.

[2] = Hair breakage due to repeated application of traditional perm and the active agent formulation (Example 7); conditions: after dithiothreitol or ammonium thioglycolate; procedure repeated three times over a 48 hour time period
[3] = Traditional perm versus perm using maleic acid (Example 6); conditions: perm after ammonium thioglycolate or dithiothreitol; after 40 cycles of washing and drying
[4] = Hair treated with bleaching formulation applied simultaneously with active agent formulation versus bleaching formulation alone (Example 5); set-up: species or system human; conditions: 3.5 g of 10 wt % in water added to bleaching mixture, two hours
Method: as §1, with “prop-2-en-1-aminium” for “2-(methacryloyloxy)ethan-1-aminium”, “(10” for “(12”
as §2, §3

What does the source list for `C=C(C)C(=O)OCCN.O=C(O)/C=C\C(=O)O` [2-(methacryloyloxy)ethan-1-aminium (Z)-3-carboxyacrylate]?
appearance [1]: healthy appearance; breakage [1]: no discernible breakage; feel [1]: great feel

What does the source list for `OO` [hydrogen peroxide]?
breakage upon visual inspection [2]: significant breakage; reduction in the overall curl [3]: only slight reduction in the overall curl

Which results are given for `C=CCN.O=C(O)/C=C\C(=O)O` [prop-2-en-1-aminium (Z)-3-carboxyacrylate]?
appearance [4]: healthy appearance; breakage [4]: no discernible breakage; feel [4]: great feel
